Source: US20060160837A1, “Rapamycin compounds in the treatment of neurofibromatosis type 1” (The Brigham and Women's Hospital, Inc., priority 2004, published 2006)

Columns and labels:
[1] = test system: S6K1 phosphorylation at T-389 (readout of mTOR activation); experiment: S6K1 (T-389) phosphorylation immunoblot in serum-starved Nf1-deficient MEFs; format: cell-based, mouse; conditions: serum-deprived Nf1-null MEFs; pre-treatment 30 min; 20 nM rapamycin, 200 nM wortmannin, U0126
[2] = test system: tuberin phosphorylation at S-1798; experiment: Phosphorylation of immunoprecipitated tuberin at S-1798 in serum-starved Nf1-deficient MEFs; format: cell-based, mouse
[3] = test system: tuberin phosphorylation at T-1462 and S-939; experiment: Tuberin phosphorylation at T-1462 and S-939, immunoblot in serum-starved Nf1-deficient cells; format: cell-based, mouse; conditions: 200 nM wortmannin or U0126
[4] = test system: S6K1 phosphorylation in NF1-/- Schwann cells; experiment: S6K1 phosphorylation immunoblot in neurofibroma-derived NF1-/- Schwann cells; format: cell-based; conditions: NF1-/- Schwann cells from human cutaneous and plexiform neurofibromas
Protocol: Litter-mate matched MEFs or NIH3T3 cells were plated in serum-free media at a density of 1.0×10^6 cells/10-cm plate. After 18 hours, 200 nM insulin or 6 μM LPA was added. Where indicated, cells were pre-treated with DMSO, 20 nM rapamycin (Calbiochem), 200 nM Wortmannin (Sigma-Aldrich), or indicated concentrations of U0126 (Calbiochem) for 30-min. For amino acid withdrawal studies, cells were washed and media was replaced with D-PBS for the indicated times. Following stimulation, cells were lysed in 1% SDS boiling lysis buffer. Neurofibroma-derived patient matched NF1^+/− and NF1^−/− Schwann cells were isolated and cultured as previously described (Rosenbaum, et al., J. Neurosci. Res. 61:524-532 (2000); Serra, et al., Hum. Mol. Genet. 9:3055-3064 (2000)). Schwann cells were seeded at a concentration of 2.5×10^5 cells/6-cm plate in DMEM containing 0.1% serum without forskolin, insulin or heregulin and lysed as described above. […] Clarified lysates were normalized for protein levels and analyzed by Western blotting with the following antibodies: Phospho-p70S6K(T-389), Phospho-Tuberin (S-939), Phospho-Tuberin (T-1462), Phospho-Akt(S-473), Phospho-p44/42 Erk (T-202/Y-204) (Cell Signaling Technologies), Tuberin (C-20) (Santa Cruz Biotechnology), Protein Kinase Bα/AKT1, Actin, β-Tubulin (Sigma-Aldrich) and avian p90RSK1. […]

[5] = test system: MPNST cell lines from NF1 patients; experiment: MPNST proliferation studies (live cell count, trypan blue exclusion); format: cell-based; conditions: Homo sapiens, 168 h; two MPNST cell lines from two NF1 patients; 7 days; rapamycin 0.01-100 nM

| SMILES | aberrant activation (phosphorylation) of S6K1 [1] | tuberin phosphorylation at S-1798 (basophilic RXRXXpS/T site) [2] | tuberin phosphorylation at T-1462 and S-939 [3] | S6K1 phosphorylation [4] | IC50 [5] [nM] |
| --- | --- | --- | --- | --- | --- |
| N#CC(=C(/N)Sc1ccccc1N)/C(C#N)=C(\N)Sc1ccccc1N [U0126] | suppressed S6K1 phosphorylation in these cells to a similar extent | suppressed | no effect | blocked |  |
| CO[C@H]1C[C@@H]2CC[C@@H](C)[C@@](O)(O2)C(=O)C(=O)N2CCCC[C@H]2C(=O)O[C@H]([C@H](C)C[C@@H]2CC[C@@H](O)[C@H](OC)C2)CC(=O)[C@H](C)/C=C(\C)[C@@H](O)[C@@H](OC)C(=O)[C@H](C)C[C@H](C)/C=C/C=C/C=C/1C [rapamycin] |  |  |  |  | 1 to 10 |
